Entries after “also recorded” stand apart in the source; their conditions may differ.
Columns and labels:
murine BMDSCs = assay: PIGF secretion by stromal cells incubated with imatinib; type: cell-based; conditions: increasing concentrations of imatinib
Method: For isolation of BMDSCs, the bone marrow from femurs and tibias was flushed, the erythrocytes eliminated with lysis buffer (150 mM NH4Cl, 0.1 mM EDTA, 10 mM KHCO3, pH 7.4) and subsequently the cells were cultured in DMEM medium supplemented with 15% FCS. After 24 hours, the non-adherent cell fraction was removed, and the adherent cells were further cultured and expanded for 3 weeks.
Concentrations of PIGF or VEGF were quantified in cell culture supernatants, peripheral blood plasma and bone marrow plasma using “Quantikine” mouse PIGF and mouse VEGF immunoassays (R&D Systems). Concentrations were expressed as pg/ml/10^5 cells or as pg/ml.

PIGF = PIGF levels in PB of CML patients treated with Imatinib; type: in vivo, human
BCR/ABL+ cell lines = assay: Induction of proliferation of leukemia cells by recombinant PIGF; type: cell-based, human and murine; conditions: in vitro
Method: Proliferation of leukemia cells and BMDSCs was analyzed by using MTT assays or by manual counting with a hemocytometer. Murine recombinant PIGF and anti-VEGFR-1 were obtained from R&D Systems. Anti-PIGF and control IgG1 were produced by Thrombogenics and Biolnvent and characterized as described (Fischer et al., 2007). PIGF was used at a concentration of 50 ng/ml and the antibodies in 100-fold molar excess, unless stated otherwise. For co-culture experiments, 10^5 BMDSCs were co-cultured for 48 hours with 4×10^5 leukemia cells alone or in presence of the respective antibodies in serum-free medium. Subsequently, numbers of adherent BMDSCs and non-adherent leukemia cells were determined and supernatants were harvested for analyses of PIGF and VEGF protein.

Bv-173 and KCL-22 cells = assay: Western Blots of ABL phosphorylation with and without PIGF; type: cell-based, human; conditions: cells incubated with and without PIGF; data not shown
Method: In order to elucidate, whether PIGF induces changes in ABL phosphorylation of BCR/ABL^+ leukemia cells, we performed Western Blots of Bv-173 and KCL-22 cells that were incubated with and without PIGF.

Molecule | PIGF secretion by BMDSCs (murine BMDSCs) | PIGF levels in PB (PIGF; patients with BCR/ABL/ABL ratio <1) | PIGF levels in PB (PIGF; patients with complete molecular remission (CMR) vs healthy subjects) | induction of proliferation of leukemia cells by PIGF (BCR/ABL+ cell lines) | phosphorylation of ABL (Bv-173 and KCL-22 cells)
Cc1ccc(NC(=O)c2ccc(CN3CCN(C)CC3)cc2)cc1Nc1nccc(-c2cccnc2)n1 [imatinib] | dose-dependent induction of PIGF | elevated to similar levels as in untreated, newly diagnosed CML patients | significantly higher | – | –
PIGF: murine recombinant placental growth factor from R&D Systems, used at 50 ng/ml (protein, UniProt P49764 19-158, looked up) Placenta growth factor: VHSQGALSAGNNSTEVEVVPFNEVWGRSYCRPMEKLVYILDEYPDEVSHIFSPSCVLLSRCSGCCGDEGLHCVPIKTANITMQILKIPPNRDPHFYVEMTFSQDVLCECRPILETTKAERRKTKGKRKRSRNSQTEEPHP | – | – | – | dose dependently induced proliferation; also recorded: dose-dependent induction of proliferation | did not modify phosphorylation of ABL
